In PMC10570959 (The Journal of Biological Chemistry, 2023):

Columns and labels:
5-HT1A receptor = target: T1, 5-HT1A receptor (Homo sapiens, UniProt P08908); test: Radioligand competition assay; format: binding; conditions: 0.5 nM [3H]8-hydroxy-DPAT; mean ± SD of three independent replicates
T1 sequence (P08908 1-422): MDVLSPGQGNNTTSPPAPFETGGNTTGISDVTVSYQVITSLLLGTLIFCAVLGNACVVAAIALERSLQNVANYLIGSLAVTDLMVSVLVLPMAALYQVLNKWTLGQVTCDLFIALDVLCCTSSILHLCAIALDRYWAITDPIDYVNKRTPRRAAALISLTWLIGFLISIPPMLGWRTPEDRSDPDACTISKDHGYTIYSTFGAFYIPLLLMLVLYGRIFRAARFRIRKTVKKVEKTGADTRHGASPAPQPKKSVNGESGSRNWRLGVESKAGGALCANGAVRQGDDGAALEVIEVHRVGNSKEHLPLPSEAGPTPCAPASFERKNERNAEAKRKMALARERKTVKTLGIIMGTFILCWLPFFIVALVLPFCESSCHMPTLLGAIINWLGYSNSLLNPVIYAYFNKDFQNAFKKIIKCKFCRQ

[1] = In vitro metabolic stability in human liver microsomes; format: in vitro ADME; conditions: 5 μM compound, 400 μg/ml HLM, 37 °C, timepoints 0, 30, 60 min; result in words
mice = conditions: result in words; cited from earlier work
RmNMT [2] = format: biochemical, Rhinella marina; conditions: for Higher conversion of substrate by RmNMT compared with OcINMT: from Table 1 activities
5-HT2A receptor = 5-HT2A receptor (Homo sapiens, UniProt P28223); conditions: read-out: 5-HT2A Ki; cited from earlier work
Chain of 5-HT2A receptor (P28223 whole entry): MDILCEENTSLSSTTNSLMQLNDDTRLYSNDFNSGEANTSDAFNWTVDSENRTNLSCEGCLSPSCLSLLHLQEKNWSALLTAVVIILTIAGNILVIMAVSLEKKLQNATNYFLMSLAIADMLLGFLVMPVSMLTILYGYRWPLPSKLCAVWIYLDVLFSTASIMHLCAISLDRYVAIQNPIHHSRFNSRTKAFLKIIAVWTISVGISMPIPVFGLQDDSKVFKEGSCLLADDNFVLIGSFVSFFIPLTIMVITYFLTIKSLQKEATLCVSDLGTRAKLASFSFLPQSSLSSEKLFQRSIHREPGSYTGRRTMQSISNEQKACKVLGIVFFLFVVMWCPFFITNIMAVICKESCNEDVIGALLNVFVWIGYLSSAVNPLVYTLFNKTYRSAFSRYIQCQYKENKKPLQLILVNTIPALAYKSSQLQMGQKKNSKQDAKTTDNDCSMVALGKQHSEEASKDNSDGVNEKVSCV

OcINMT = conditions: cited from earlier work
MAO-A = conditions: rat liver mitochondria; result in words; cited from earlier work
RmNMT [3] = format: biochemical, Rhinella marina; conditions: 30 °C, 10 min
[4] = radiolabeled compound injected into rabbits; result in words; cited from earlier work
HsINMT = conditions: read-out: Km (HsINMT); cited from earlier work
[5] = standard in vitro assay, 1 h, 37 °C, mean ± SD, triplicate

SMILES: Cc1[nH]c2ccccc2c1CCN [2-Methyltryptamine]
- 5-HT1A Ki (5-HT1A receptor): micromolar levels
- Metabolic stability during exposure to human liver microsome [1]: showed greater stability

SMILES: NCCc1c[nH]c2cccc(O)c12 [4-Hydroxytryptamine]
- Head-twitch response (mice): does not induce head-twitch response

SMILES: NCCc1c[nH]c2ccc(O)cc12 [5-Hydroxytryptamine (serotonin), 5-Hydroxytryptamine]
- RmNMT enzyme activity, product Bufotenin (RmNMT [2]): 4.65 ± 0.112

SMILES: CN(C)CCc1c[nH]c2cc(F)cc(O)c12 [6-fluoro-psilocin]
- Ki (5-HT2A receptor): 13 nM

SMILES: COc1ccc2c(CCN(C)C)c[nH]c2c1 [6-methoxy-DMT]
- Ki (5-HT2A receptor): 7300 nM

SMILES: CN(C)CCc1c[nH]c2ccc(O)cc12 [Bufotenin, 5-hydroxy-DMT]
- Metabolic stability during exposure to human liver microsome [1]: degraded faster than psilocin

SMILES: CN(C)CCc1c[nH]c2ccccc12 [DMT, N,N-dimethyltryptamine]
- Ki (5-HT2A receptor): 1200 nM
- Inhibition of OcINMT by its product (OcINMT; result in words): noncompetitively inhibited
- Activity as MAO-A substrate (MAO-A): could not be detected

SMILES: CNCCc1c[nH]c2ccccc12 [N-Methyltryptamine]
- Higher conversion of substrate by RmNMT compared with OcINMT (RmNMT [2]): 27 fold
- RmNMT enzyme activity, product DMT (RmNMT [2]; [5]): 10.44 ± 0.46
- Activity as MAO-A substrate (MAO-A): substrates of MAO-A

SMILES: NCCc1c[nH]c2ccccc12 [Tryptamine]
- kcat (RmNMT) (RmNMT [3]): 0.00052 s⁻¹
- Higher conversion of substrate by RmNMT compared with OcINMT (RmNMT [2]): 18 fold
- RmNMT enzyme activity, product N-Methyltryptamine (RmNMT [2]; [5]): 3.51 ± 0.079
- Persistence in brain tissue [4]: disappeared within minutes
- Km (HsINMT): 2920 µM
- Km (OcINMT; read-out: Km (OcINMT)): 270 µM
- Activity as MAO-A substrate (MAO-A): substrates of MAO-A
